Assay results taken from patent US11717536B2, “Treatment for periodontitis” (THE UNIVERSITY OF MELBOURNE, priority 2017, dated 2023).
Entries after “also recorded” stand apart in the source; their conditions may differ.

Experiments:
[1] = system: Streptococcus sanguinis (NCTC 7863); experiment: Six species polymicrobial biofilm in constant-depth film fermenter, species composition: S. sanguinis; format: cell-based
Description: To model supragingival plaque six representative oral bacterial species, Streptococcus sanguinis (NCTC 7863), Streptococcus mutans Ingbritt, Actinomyces naeslundii (NCTC 10301), Veillonella parvula (ATCC 17745), Lactobacillus casei (NCDO 161) and Fusobacterium nucleatum (ATCC 10953) (Table 5) were cultured as a polymicrobial biofilm on a human enamel substratum in a constant-depth film fermenter (CDFF; Cardiff University, UK). The CDFF was housed in a 37° C. incubator under anaerobic conditions which were maintained by a constant flow of 5% CO2 in N2 at 1 L/h. The CDFF contained 15 removable polytetrafluoroethylene (PTFE) pans on a circular platform that was rotated at a constant speed of three rpm. The biofilms were grown on three enamel blocks (see below) in each PTFE pan using an artificial saliva medium (ASM, 2.5 g/L mucin type II (porcine, gastric, Sigma), 2.0 g/L bacteriological peptone (Oxoid), 2.0 g/L tryptone (Oxoid), 1.0 g/L yeast extract (Oxoid), 0.35 g/L NaCl, 0.2 g/L KCl, 0.2 mg/L vitamin K, 1 mg/L haemin and 0.1 g/L cysteine hydrochloride) at a constant flow rate of 30 mL/h. Prior to inoculation, the CDFF pan surfaces were conditioned for 24 h with ASM at a flow rate of 10 mL/h (McBain et al (2003) J Appl Microbiol. 94(4):655-66). In order to mimic in vivo bacterial growth conditions in the oral cavity with dietary sugar intake and to provide a high cariogenic challenge, a 1% (w/v) sucrose solution in ASM was pumped into the CDFF four times a day at four hourly intervals with a flow rate of 30 mL/h for 10 min.
Three treatments were applied to the polymicrobial biofilms: 290 ppm fluoride with 220 ppm fluoride as SnF2 and 70 ppm fluoride as NaF (referred to as SnF2), 2% CPP-ACP and 2% CPP-ACP-SnF2. These treatments were compared with the control in which the test solution was replaced with ASM. Each treatment was applied using two 10 min pulses of the test solution in ASM with a flow rate of 30 mL/h. The first pulse started 30 min prior to the first sucrose pulse of the morning and the second started 3 h 30 min after the final sucrose pulse of the day.
On day 6, 12 and 19 after inoculation four pans were removed aseptically from the CDFF and replaced with blank sterile pans. Enamel blocks from the pans were removed for bacterial enumeration and transverse microradiography.
Planktonic and loosely attached bacterial cells were firstly removed from the enamel blocks by light washing with 100 μL ASM. […]
For each timepoint, DNA was extracted separately from 8-9 enamel blocks using PowerLyzer® PowerSoil® DNA Isolation Kits (MoBio Laboratories) following the manufacturers “Vacuum Protocol” with a Precellys® bead homogeniser (Bertin Technologies). Samples were quantified using a Qubit™ dsDNA HS assay kit (Life Technologies) before being stored at −80° C. […]

gingivitis = experiment: Clinical trial: gingivitis by Modified Gingival Index; format: in vivo, human; details: CPP-ACP gum (18.8 and 56.4 mg), 14 days, vs no gum chewing; FIG. 2
Description: Following the completion of the examination and supragingival plaque collection, participants received a supragingival scaling, clean and prophylaxis of all their teeth. At the completion of the last examination for leg 3, each participant received a professional fluoride treatment. Gingivitis was measured using the Modified Gingival Index [Lobene et al 1986]. This index is a modification of the Loe and Silness Gingival Index and allows greater discrimination for mild and moderate gingivitis. In this study, gingival inflammation on a scale from 0 to 4 was scored for gingival tissues associated with four sites (buccal, lingual, mesial and distal) of all teeth.

supragingival plaque = experiment: Clinical trial: plaque index (Turesky modification of the Quigley-Hein Index); format: in vivo, human; details: CPP-ACP gum (18.8 or 56.4 mg), 14 days, vs no gum chewing; FIG. 1
Description: Following the completion of the examination and supragingival plaque collection, participants received a supragingival scaling, clean and prophylaxis of all their teeth. At the completion of the last examination for leg 3, each participant received a professional fluoride treatment. Supragingival plaque was assessed using the Turesky modification of the Quigley-Hein Index (Turesky et al 1970 J Periodontol 41(1):41-43). This index is recognised as a reliable estimate of the tooth area covered by plaque and is frequently used for evaluating anti-plaque agents. The plaque index was obtained by adding the scores for each tooth and dividing by the number of surfaces examined. Plaque scores associated with unrestored labial, buccal and lingual surfaces of all teeth, except third molars were assessed. Each surface was assigned a score from 0 to 5.

Casein phosphopeptide-amorphous calcium phosphate [CPP-ACP]
S. sanguinis as a percentage of total bacteria in the biofilm ([1]; 19 days, mean ± standard deviation, n = 5-21): 19.85 ± 2.86^bc % | change in abundance of S. sanguinis relative to the control (in words) ([1]; twice daily treatment, day 19): significantly increased; also recorded: reproducible increases | gingival index (gingivitis): significant CPP-ACP dose-related improvement | plaque index (supragingival plaque): did not produce a significant change
